Measurements reported in patent US4874751A, “Antibacterial treatment” (priority 1985, dated 1989).

What was measured:
[1] = LD50 in mice
[2] = LD50 in rats

Cc1cn([C@H]2C[C@H](N=[N+]=[N-])[C@@H](CO)O2)c(=O)[nH]c1=O
LD50 [1]: greater than 750 mg/kg
LD50 [2]: greater than 750 mg/kg
